± gives the uncertainty stated by the source.
Assay: xn = mol fraction of the nth substance listed

CCCCCCCCCCCCCC[P+](CCCCCC)(CCCCCC)CCCCCC.N#C[N-]C#N + O
viscosity [mPa·s], 100 kPa
Details	298.15 K	303.15 K
x1 = 0.5511	183 ± 13	–
x1 = 0.8444	440 ± 34	328 ± 24

CCCCCCCCCC[n+]1ccn(C)c1.O=S(=O)([O-])C(F)(F)C(F)(F)C(F)(F)C(F)(F)F + O
298.15 K, 100 kPa
Details	electrical conductivity [S/m]
x1 = 1.66e-06	0.00043 ± 1e-05
x1 = 2.36e-06	0.00063 ± 1e-05
x1 = 3.06e-06	0.00086 ± 2e-05
x1 = 4.11e-06	0.00114 ± 2e-05
x1 = 5.17e-06	0.00146 ± 3e-05
x1 = 5.95e-06	0.00163 ± 3e-05
x1 = 6.65e-06	0.00186 ± 4e-05
x1 = 7.44e-06	0.00212 ± 4e-05
x1 = 8.14e-06	0.00237 ± 5e-05
x1 = 8.76e-06	0.00252 ± 5e-05
x1 = 9.8e-06	0.00283 ± 6e-05
x1 = 1.042e-05	0.003 ± 6e-05
x1 = 1.103e-05	0.00323 ± 6e-05
x1 = 1.164e-05	0.00343 ± 7e-05
x1 = 1.234e-05	0.00363 ± 7e-05
x1 = 1.323e-05	0.00389 ± 8e-05
x1 = 1.384e-05	0.00412 ± 8e-05
x1 = 1.445e-05	0.00429 ± 9e-05
x1 = 1.506e-05	0.00446 ± 9e-05
x1 = 1.586e-05	0.00466 ± 9e-05
x1 = 1.638e-05	0.00486 ± 0.0001
x1 = 1.699e-05	0.00506 ± 0.0001
x1 = 1.779e-05	0.00529 ± 0.00011
x1 = 1.831e-05	0.00541 ± 0.00011
x1 = 1.901e-05	0.00569 ± 0.00011
x1 = 1.971e-05	0.00578 ± 0.00012
x1 = 2.058e-05	0.00601 ± 0.00012
x1 = 2.171e-05	0.00621 ± 0.00012
x1 = 2.26e-05	0.00635 ± 0.00013
x1 = 2.33e-05	0.00649 ± 0.00013
x1 = 2.443e-05	0.00669 ± 0.00013
x1 = 2.512e-05	0.00678 ± 0.00014
x1 = 2.618e-05	0.00695 ± 0.00014
x1 = 2.714e-05	0.00703 ± 0.00014
x1 = 2.793e-05	0.0072 ± 0.00014
x1 = 2.907e-05	0.00729 ± 0.00015
x1 = 3.011e-05	0.0074 ± 0.00015
x1 = 3.116e-05	0.00746 ± 0.00015
x1 = 3.229e-05	0.00763 ± 0.00015
x1 = 3.361e-05	0.00777 ± 0.00016
x1 = 3.526e-05	0.00791 ± 0.00016
x1 = 3.649e-05	0.008 ± 0.00016
x1 = 3.815e-05	0.00814 ± 0.00016
x1 = 3.971e-05	0.00825 ± 0.00017
x1 = 4.103e-05	0.00831 ± 0.00017

CCCCCCCC[N+](C)(C)C.[Br-] + O
298.15 K, 101 kPa
Details	viscosity [mPa·s]
x1 = 0.000891	0.9226
x1 = 0.001742	0.956
x1 = 0.002174	0.9692
x1 = 0.002616	0.9795
x1 = 0.003154	0.9978
x1 = 0.003538	1.012
x1 = 0.004276	1.036
x1 = 0.004645	1.048
x1 = 0.005039	1.058
x1 = 0.005479	1.076

CCCCCCCC[n+]1cccc(C)c1.F[B-](F)(F)F + O
298.15 K, 101 kPa
Details	electrical conductivity [S/m]
x1 = 4.685e-05	0.024 ± 0.02
x1 = 0.0001279	0.063 ± 0.02
x1 = 0.000272	0.127 ± 0.02
x1 = 0.0003045	0.142 ± 0.02
x1 = 0.0004197	0.19 ± 0.02
x1 = 0.0005619	0.248 ± 0.02
x1 = 0.0007023	0.308 ± 0.02
x1 = 0.0007922	0.33 ± 0.02
x1 = 0.0008948	0.377 ± 0.02
x1 = 0.0009955	0.402 ± 0.02
x1 = 0.00103	0.408 ± 0.02
x1 = 0.001107	0.419 ± 0.02
x1 = 0.001265	0.42 ± 0.02
x1 = 0.00128	0.42 ± 0.02
x1 = 0.001371	0.421 ± 0.02
x1 = 0.001459	0.421 ± 0.02
x1 = 0.001608	0.422 ± 0.02
x1 = 0.00177	0.422 ± 0.02
x1 = 0.001919	0.422 ± 0.02
x1 = 0.002066	0.423 ± 0.02
x1 = 0.002642	0.425 ± 0.02

CCCCCC[n+]1ccn(C)c1.N[C@@H](CCC(=O)O)C(=O)[O-] + O
298.15 K, 100 kPa
Details	electrical conductivity [S/m]
x1 = 0.001278	0.2317 ± 0.0023
x1 = 0.002014	0.338 ± 0.0034
x1 = 0.00309	0.46 ± 0.01
x1 = 0.004145	0.577 ± 0.0059
x1 = 0.004824	0.676 ± 0.0069
x1 = 0.00584	0.783 ± 0.0079
x1 = 0.007281	0.923 ± 0.0093
x1 = 0.008947	1.011 ± 0.01
x1 = 0.01064	1.107 ± 0.011
x1 = 0.01274	1.2 ± 0.012
x1 = 0.01517	1.26 ± 0.013
x1 = 0.01798	1.28 ± 0.013

CCCCCCn1cc[n+](CCCCCC)c1.O=S(=O)([N-]S(=O)(=O)C(F)(F)F)C(F)(F)F + O
100 kPa, x2 = 0.1489
Details	viscosity [mPa·s]
303.15 K	65.69 ± 0.6
328.15 K	24.7 ± 0.22

CCCC[P+](CCCC)(CCCC)CCCC.[Br-] + O
Details	viscosity [mPa·s]
298.15 K, 101 kPa, x1 = 0.09759	10.65 ± 0.25

CC[n+]1ccn(C)c1.O=C([O-])C(F)(F)C(F)(F)C(F)(F)C(F)(F)F + O
101 kPa
Details	viscosity [mPa·s]
298.15 K, x1 = 0.02217	2.59 ± 0.1
298.15 K, x1 = 0.1009	10.41 ± 0.42
298.15 K, x1 = 0.2367	20.95 ± 0.86
298.15 K, x1 = 0.4266	36.3 ± 1.5
308.15 K, x1 = 0.03108	2.57 ± 0.1
308.15 K, x1 = 0.04277	3.44 ± 0.14
308.15 K, x1 = 0.08573	6 ± 0.24
308.15 K, x1 = 0.1458	9.48 ± 0.39
308.15 K, x1 = 0.2011	12.32 ± 0.51
308.15 K, x1 = 0.2621	15.23 ± 0.63
308.15 K, x1 = 0.3007	17.04 ± 0.7
318.15 K, x1 = 0.02217	1.616 ± 0.065
318.15 K, x1 = 0.1458	6.88 ± 0.28
318.15 K, x1 = 0.1625	7.47 ± 0.31

COCC[n+]1ccn(C)c1.C[C@@H](O)[C@H](N)C(=O)[O-] + O
100 kPa
Details	viscosity [mPa·s]
303.15 K, x1 = 0.5348	557 ± 45
303.15 K, x1 = 0.6571	581 ± 48
308.15 K, x1 = 0.3313	297 ± 18
318.15 K, x1 = 0.5348	163.8 ± 6.7
323.15 K, x1 = 0.4476	114.9 ± 3.4
323.15 K, x1 = 0.5348	120.9 ± 3.8
323.15 K, x1 = 0.6571	126.6 ± 4.2

C[NH+](C)C.O=S(=O)([O-])O + O
298.15 K, 101 kPa
Details	viscosity [mPa·s]
x2 = 0.0727	4.98 ± 0.31
x2 = 0.2456	4.64 ± 0.29
x2 = 0.3339	4.43 ± 0.27
x2 = 0.5675	3.69 ± 0.23
x2 = 0.8484	2.18 ± 0.13
x2 = 0.9552	1.3 ± 0.08

[Br-].[PH3+]CCCCCCCCCCCCCC(c1ccccc1)(c1ccccc1)c1ccccc1 + O
300 K, 101 kPa
Details	electrical conductivity [S/m]
x2 = 0.503	0.00198 ± 5e-05
x2 = 0.603	0.00058 ± 5e-05
x2 = 0.802	0.00038 ± 5e-05

CC[n+]1ccn(C)c1.O=S(=O)([O-])C(F)(F)F + O + CC(=O)[O-].CC[n+]1ccn(C)c1
293.15 K, 100 kPa
Details	viscosity [mPa·s]
x2 = 0.337, x3 = 0.64	91 ± 13
x2 = 0.341, x3 = 0.612	87 ± 12
x2 = 0.348, x3 = 0.555	80 ± 11
x2 = 0.359, x3 = 0.492	72 ± 10

CC[NH+](C)CC.CS(=O)(=O)[O-] + O + CC[NH+](C)CC.O=S(=O)([O-])C(F)(F)F
101 kPa, x2 = 0.121, x3 = 0
Details	viscosity [mPa·s]
313.15 K	46.5 ± 3.3
333.15 K	21.6 ± 1.5
353.15 K	12.05 ± 0.85

C[n+]1ccn(CCCC#N)c1.O=S(=O)([N-]S(=O)(=O)C(F)(F)F)C(F)(F)F + O=C1CCCO1
electrical conductivity [S/m], 100 kPa
Details	x1 = 0.1003	x1 = 0.2005	x1 = 0.3003	x1 = 0.4005	x1 = 0.4997	x1 = 0.6003	x1 = 0.7001	x1 = 0.8002	x1 = 0.9003	x1 = 1
288.15 K	0.668 ± 0.01	0.774 ± 0.01	0.578 ± 0.01	0.43 ± 0.01	0.309 ± 0.01	0.225 ± 0.01	0.151 ± 0.01	0.11 ± 0.01	0.077 ± 0.01	0.061 ± 0.01
293.15 K	0.731 ± 0.01	0.838 ± 0.01	0.635 ± 0.01	0.482 ± 0.01	0.353 ± 0.01	0.266 ± 0.01	0.186 ± 0.01	0.141 ± 0.01	0.101 ± 0.01	0.083 ± 0.01
298.15 K	0.794 ± 0.01	0.908 ± 0.01	0.696 ± 0.01	0.54 ± 0.01	0.405 ± 0.01	0.312 ± 0.01	0.226 ± 0.01	0.176 ± 0.01	0.132 ± 0.01	0.112 ± 0.01
303.15 K	0.862 ± 0.01	0.976 ± 0.01	0.76 ± 0.01	0.603 ± 0.01	0.46 ± 0.01	0.365 ± 0.01	0.272 ± 0.01	0.217 ± 0.01	0.169 ± 0.01	0.146 ± 0.01
308.15 K	0.933 ± 0.01	1.05 ± 0.011	0.827 ± 0.01	0.669 ± 0.01	0.522 ± 0.01	0.424 ± 0.01	0.324 ± 0.01	0.265 ± 0.01	0.212 ± 0.01	0.185 ± 0.01
313.15 K	1.01 ± 0.01	1.122 ± 0.011	0.897 ± 0.01	0.741 ± 0.01	0.59 ± 0.01	0.487 ± 0.01	0.383 ± 0.01	0.319 ± 0.01	0.262 ± 0.01	0.231 ± 0.01
318.15 K	1.08 ± 0.011	1.2 ± 0.012	0.971 ± 0.01	0.817 ± 0.01	0.662 ± 0.01	0.556 ± 0.01	0.448 ± 0.01	0.379 ± 0.01	0.319 ± 0.01	0.285 ± 0.01
323.15 K	1.16 ± 0.012	1.28 ± 0.013	1.05 ± 0.011	0.899 ± 0.01	0.741 ± 0.01	0.633 ± 0.01	0.519 ± 0.01	0.448 ± 0.01	0.384 ± 0.01	0.346 ± 0.01
328.15 K	1.242 ± 0.012	1.36 ± 0.014	1.128 ± 0.011	0.987 ± 0.01	0.825 ± 0.01	0.714 ± 0.01	0.599 ± 0.01	0.521 ± 0.01	0.455 ± 0.01	0.414 ± 0.01
333.15 K	1.33 ± 0.013	1.444 ± 0.014	1.21 ± 0.012	1.08 ± 0.011	0.915 ± 0.01	0.799 ± 0.01	0.686 ± 0.01	0.606 ± 0.01	0.536 ± 0.01	0.491 ± 0.01
338.15 K	1.416 ± 0.014	1.532 ± 0.015	1.3 ± 0.013	1.18 ± 0.012	1.015 ± 0.01	0.896 ± 0.01	0.782 ± 0.01	0.695 ± 0.01	0.625 ± 0.01	0.575 ± 0.01
343.15 K	1.508 ± 0.015	1.622 ± 0.016	1.39 ± 0.014	1.28 ± 0.013	1.115 ± 0.011	0.996 ± 0.01	0.884 ± 0.01	0.793 ± 0.01	0.719 ± 0.01	0.669 ± 0.01

From the CheMixHub ionic liquid set
